The target in test [1] is T1, 5-hydroxytryptamine receptor 1A (Homo sapiens) (UniProt P08908).
T1 sequence (whole entry): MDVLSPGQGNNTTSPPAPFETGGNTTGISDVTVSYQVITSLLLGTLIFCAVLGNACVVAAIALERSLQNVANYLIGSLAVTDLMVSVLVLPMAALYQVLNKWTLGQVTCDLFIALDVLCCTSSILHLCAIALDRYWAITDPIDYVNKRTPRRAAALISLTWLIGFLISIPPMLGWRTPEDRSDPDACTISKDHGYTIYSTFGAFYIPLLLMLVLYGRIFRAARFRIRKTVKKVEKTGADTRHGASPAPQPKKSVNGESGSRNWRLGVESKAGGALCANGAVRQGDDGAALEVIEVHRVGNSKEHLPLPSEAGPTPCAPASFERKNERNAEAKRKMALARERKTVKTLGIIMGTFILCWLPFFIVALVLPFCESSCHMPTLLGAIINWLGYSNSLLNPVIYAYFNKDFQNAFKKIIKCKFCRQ
The following applies: Compound concentration 10.0 uM.

For test [2], the target named is Alpha-1B adrenergic receptor (Homo sapiens) (UniProt P35368). Conditions: Compound concentration 10.0 uM.
Alpha-1B adrenergic receptor (Homo sapiens), sequence (P35368 whole entry): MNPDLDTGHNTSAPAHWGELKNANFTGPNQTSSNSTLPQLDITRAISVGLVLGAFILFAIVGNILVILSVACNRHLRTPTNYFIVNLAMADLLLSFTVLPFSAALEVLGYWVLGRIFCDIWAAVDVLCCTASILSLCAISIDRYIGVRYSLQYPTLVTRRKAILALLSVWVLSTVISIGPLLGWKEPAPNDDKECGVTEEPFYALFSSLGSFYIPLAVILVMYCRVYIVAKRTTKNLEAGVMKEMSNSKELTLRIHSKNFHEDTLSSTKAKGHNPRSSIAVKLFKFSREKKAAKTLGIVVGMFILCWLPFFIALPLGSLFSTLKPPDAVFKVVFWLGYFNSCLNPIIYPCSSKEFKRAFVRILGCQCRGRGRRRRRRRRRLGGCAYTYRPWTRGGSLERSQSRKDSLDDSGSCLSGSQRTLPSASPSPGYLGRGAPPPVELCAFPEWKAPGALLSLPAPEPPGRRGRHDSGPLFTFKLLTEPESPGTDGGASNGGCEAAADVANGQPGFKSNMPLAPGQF
Test [3] concerns the target Histamine H1 receptor (Homo sapiens) (UniProt P35367). The following applies: Compound concentration 10.0 uM.
For test [4], the target named is T2, Alpha-2C adrenergic receptor (Homo sapiens) (UniProt P18825).
T2 sequence (whole entry): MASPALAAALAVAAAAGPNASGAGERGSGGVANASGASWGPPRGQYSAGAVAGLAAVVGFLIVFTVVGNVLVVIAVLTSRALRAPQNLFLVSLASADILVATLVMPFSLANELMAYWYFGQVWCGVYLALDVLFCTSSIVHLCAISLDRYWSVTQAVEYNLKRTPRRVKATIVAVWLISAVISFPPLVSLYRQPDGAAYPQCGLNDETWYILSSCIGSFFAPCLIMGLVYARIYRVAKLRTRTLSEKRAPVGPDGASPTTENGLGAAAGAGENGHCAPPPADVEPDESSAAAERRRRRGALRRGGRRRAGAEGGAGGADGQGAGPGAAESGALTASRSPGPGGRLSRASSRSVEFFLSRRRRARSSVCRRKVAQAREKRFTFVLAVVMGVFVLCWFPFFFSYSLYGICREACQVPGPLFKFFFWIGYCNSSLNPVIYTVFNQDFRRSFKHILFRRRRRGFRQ
Conditions: Compound concentration 10.0 uM.

In test [5] the target is Muscarinic acetylcholine receptor M5 (Homo sapiens) (UniProt P08912). The following applies: Compound concentration 10.0 uM.
Muscarinic acetylcholine receptor M5 (Homo sapiens), sequence (P08912 whole entry): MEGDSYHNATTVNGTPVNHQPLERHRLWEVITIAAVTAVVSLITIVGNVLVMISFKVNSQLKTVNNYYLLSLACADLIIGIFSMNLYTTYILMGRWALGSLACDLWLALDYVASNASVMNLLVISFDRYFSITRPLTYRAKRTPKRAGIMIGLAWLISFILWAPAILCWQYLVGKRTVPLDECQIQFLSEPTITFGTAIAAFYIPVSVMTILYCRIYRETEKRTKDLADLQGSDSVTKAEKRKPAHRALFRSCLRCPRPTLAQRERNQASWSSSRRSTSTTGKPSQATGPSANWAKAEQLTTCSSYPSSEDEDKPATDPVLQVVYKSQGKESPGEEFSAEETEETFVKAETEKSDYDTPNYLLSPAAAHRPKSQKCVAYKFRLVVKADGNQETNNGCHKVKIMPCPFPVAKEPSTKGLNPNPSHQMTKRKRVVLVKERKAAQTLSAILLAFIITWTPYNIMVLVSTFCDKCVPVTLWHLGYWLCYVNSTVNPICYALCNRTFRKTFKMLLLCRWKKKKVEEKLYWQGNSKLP
The next test is filed under the species Rattus norvegicus. Conditions: Compound concentration 10.0 uM.
Test [6] addresses 5-hydroxytryptamine receptor 2A (Homo sapiens, UniProt P28223). Conditions: Compound concentration 10.0 uM.
For test [7], the target named is D(4) dopamine receptor (Homo sapiens) (UniProt P21917). The following applies: Compound concentration 10.0 uM.
D(4) dopamine receptor (Homo sapiens), sequence (P21917 whole entry): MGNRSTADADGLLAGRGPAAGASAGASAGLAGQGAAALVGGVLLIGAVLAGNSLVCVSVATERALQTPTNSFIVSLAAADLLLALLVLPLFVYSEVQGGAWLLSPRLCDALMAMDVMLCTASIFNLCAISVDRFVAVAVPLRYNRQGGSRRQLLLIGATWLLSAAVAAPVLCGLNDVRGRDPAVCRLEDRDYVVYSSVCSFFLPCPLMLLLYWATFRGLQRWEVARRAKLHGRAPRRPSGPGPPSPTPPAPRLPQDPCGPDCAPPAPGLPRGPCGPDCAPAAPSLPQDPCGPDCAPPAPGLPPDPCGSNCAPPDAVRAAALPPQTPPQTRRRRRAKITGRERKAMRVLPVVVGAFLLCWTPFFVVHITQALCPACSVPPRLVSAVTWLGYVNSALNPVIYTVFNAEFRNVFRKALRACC
In test [8] the target is Transient receptor potential cation channel subfamily A member 1 (Homo sapiens, UniProt O75762). Put plainly: FLIPR Ca2+ assay (human […]).
Transient receptor potential cation channel subfamily A member 1, sequence (O75762 whole entry): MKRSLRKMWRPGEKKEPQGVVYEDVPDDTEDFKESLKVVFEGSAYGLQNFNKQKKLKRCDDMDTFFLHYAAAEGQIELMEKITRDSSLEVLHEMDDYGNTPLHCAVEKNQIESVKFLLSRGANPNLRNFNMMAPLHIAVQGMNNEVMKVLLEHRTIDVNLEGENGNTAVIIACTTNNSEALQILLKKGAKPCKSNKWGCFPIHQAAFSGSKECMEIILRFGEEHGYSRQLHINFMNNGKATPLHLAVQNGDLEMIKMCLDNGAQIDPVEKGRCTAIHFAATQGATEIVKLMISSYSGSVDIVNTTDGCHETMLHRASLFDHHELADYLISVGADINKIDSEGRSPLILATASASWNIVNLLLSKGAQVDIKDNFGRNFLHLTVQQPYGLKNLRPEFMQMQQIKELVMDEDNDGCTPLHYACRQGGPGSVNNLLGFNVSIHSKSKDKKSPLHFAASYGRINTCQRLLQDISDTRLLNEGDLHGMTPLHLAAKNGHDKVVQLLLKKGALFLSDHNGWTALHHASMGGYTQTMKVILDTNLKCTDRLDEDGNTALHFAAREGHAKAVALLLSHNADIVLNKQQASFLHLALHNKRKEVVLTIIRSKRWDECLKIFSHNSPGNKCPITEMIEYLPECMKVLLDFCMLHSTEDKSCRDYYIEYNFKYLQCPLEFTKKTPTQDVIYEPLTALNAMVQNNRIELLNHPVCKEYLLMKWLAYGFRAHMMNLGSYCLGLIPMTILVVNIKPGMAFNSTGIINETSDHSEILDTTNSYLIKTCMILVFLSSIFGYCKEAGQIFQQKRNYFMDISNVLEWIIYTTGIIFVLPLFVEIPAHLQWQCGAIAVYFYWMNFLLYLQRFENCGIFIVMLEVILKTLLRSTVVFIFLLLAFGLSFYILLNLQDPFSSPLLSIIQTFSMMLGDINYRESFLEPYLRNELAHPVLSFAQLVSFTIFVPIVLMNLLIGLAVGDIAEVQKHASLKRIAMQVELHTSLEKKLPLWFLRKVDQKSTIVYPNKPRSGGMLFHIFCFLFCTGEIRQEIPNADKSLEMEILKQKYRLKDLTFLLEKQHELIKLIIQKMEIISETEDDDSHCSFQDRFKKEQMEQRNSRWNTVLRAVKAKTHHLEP
Test [9] addresses T3, Alpha-1A adrenergic receptor (Homo sapiens) (UniProt P35348).
T3 sequence (whole entry): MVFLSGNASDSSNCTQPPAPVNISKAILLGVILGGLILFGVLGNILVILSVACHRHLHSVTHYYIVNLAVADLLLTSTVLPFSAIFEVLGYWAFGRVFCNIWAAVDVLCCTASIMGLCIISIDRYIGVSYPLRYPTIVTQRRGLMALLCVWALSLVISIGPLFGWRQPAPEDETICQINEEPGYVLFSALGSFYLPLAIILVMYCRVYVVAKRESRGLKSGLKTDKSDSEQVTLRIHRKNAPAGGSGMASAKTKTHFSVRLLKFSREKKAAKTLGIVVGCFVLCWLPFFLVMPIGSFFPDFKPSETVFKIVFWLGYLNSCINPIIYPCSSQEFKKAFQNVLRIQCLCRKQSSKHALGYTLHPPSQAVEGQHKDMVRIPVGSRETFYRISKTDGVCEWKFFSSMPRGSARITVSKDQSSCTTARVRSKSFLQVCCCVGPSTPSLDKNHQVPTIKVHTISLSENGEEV
The following applies: Compound concentration 10.0 uM.

In test [10] the target is D(3) dopamine receptor (Homo sapiens) (UniProt P35462). The following applies: Compound concentration 10.0 uM.
D(3) dopamine receptor (Homo sapiens), sequence (P35462 whole entry): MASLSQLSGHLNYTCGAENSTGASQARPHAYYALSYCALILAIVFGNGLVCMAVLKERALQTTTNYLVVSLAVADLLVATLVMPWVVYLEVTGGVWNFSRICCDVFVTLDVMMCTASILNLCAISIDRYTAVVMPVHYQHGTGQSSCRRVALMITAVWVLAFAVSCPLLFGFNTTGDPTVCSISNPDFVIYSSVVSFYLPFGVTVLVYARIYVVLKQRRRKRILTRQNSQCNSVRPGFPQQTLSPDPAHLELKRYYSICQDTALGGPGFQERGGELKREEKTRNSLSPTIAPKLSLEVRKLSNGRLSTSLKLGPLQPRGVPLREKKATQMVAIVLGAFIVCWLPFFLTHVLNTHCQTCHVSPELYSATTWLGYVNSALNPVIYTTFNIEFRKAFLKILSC
The target in test [11] is T4, Muscarinic acetylcholine receptor M1 (Homo sapiens) (UniProt P11229).
T4 sequence (whole entry): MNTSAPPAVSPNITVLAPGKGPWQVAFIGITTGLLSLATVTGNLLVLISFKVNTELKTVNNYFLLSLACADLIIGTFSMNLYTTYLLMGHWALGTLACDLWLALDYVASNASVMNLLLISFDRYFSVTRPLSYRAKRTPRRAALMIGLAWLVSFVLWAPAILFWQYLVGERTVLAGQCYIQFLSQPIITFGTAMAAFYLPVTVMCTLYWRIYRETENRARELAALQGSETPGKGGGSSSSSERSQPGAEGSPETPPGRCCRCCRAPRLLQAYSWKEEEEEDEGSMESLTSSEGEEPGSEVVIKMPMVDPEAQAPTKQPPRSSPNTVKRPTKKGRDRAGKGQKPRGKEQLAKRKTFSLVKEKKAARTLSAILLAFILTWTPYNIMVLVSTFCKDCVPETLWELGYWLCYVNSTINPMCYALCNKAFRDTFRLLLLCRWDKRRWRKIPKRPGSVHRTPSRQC
The following applies: Compound concentration 10.0 uM.

Test [12] has as its target Transient receptor potential cation channel subfamily V member 4 (Homo sapiens, UniProt Q9HBA0). Put plainly: TRP selectivity screen (TRPV4).
The target of test [13] is Delta-type opioid receptor (Homo sapiens) (UniProt P41143). Conditions: Compound concentration 10.0 uM.
Delta-type opioid receptor (Homo sapiens), sequence (P41143 whole entry): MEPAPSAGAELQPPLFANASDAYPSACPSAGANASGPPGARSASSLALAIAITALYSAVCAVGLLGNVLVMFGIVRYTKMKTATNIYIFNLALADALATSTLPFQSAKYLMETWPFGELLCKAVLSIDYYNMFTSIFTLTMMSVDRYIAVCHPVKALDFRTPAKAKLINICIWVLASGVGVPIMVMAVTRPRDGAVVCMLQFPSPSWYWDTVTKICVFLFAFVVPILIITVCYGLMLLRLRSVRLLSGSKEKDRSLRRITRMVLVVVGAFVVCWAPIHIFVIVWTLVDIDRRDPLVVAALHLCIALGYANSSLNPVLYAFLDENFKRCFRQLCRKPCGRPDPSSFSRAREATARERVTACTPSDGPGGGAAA
In test [14] the target is T5, Muscarinic acetylcholine receptor M2 (Homo sapiens) (UniProt P08172).
T5 sequence (whole entry): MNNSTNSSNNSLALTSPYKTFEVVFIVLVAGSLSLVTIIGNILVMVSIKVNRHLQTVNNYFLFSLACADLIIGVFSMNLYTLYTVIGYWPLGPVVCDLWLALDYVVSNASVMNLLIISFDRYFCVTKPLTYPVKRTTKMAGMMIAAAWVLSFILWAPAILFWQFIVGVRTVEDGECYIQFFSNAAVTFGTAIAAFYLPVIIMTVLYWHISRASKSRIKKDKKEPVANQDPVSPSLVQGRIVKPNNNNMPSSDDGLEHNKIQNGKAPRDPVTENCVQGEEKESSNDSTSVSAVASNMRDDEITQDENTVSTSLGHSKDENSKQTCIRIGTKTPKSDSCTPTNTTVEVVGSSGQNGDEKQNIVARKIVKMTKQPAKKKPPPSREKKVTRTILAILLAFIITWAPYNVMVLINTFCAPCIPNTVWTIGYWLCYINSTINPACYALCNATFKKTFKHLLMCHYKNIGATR
Conditions: Compound concentration 10.0 uM.

Structures are written as SMILES. The source made the active and inactive calls. No cut-off for these calls is given here.

Histamine H1 receptor (Homo sapiens), sequence (P35367 whole entry): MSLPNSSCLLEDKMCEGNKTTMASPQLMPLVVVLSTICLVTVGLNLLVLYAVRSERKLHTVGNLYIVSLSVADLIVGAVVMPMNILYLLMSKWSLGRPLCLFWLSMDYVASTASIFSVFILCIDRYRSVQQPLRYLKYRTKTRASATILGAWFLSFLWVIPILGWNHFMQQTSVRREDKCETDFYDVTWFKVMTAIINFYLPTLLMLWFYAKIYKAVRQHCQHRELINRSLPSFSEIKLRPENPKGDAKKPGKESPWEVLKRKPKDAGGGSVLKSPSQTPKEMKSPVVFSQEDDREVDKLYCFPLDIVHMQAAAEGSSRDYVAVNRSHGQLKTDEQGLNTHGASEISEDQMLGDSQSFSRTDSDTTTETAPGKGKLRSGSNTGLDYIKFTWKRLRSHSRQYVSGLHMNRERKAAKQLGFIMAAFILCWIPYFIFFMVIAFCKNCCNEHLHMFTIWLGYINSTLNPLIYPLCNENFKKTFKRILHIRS
5-hydroxytryptamine receptor 2A, sequence (P28223 whole entry): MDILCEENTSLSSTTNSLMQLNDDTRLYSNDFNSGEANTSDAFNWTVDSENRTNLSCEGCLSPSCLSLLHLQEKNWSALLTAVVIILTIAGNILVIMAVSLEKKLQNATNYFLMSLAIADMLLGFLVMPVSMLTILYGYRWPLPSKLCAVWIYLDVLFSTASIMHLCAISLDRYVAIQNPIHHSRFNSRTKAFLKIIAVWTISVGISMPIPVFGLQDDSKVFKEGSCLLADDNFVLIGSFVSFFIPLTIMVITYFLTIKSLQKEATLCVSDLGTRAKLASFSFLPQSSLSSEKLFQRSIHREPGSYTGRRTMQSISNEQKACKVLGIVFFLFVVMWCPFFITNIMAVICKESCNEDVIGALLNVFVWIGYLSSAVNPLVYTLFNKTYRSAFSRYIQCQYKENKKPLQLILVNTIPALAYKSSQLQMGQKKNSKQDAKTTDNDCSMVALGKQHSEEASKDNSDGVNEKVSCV

Take `O[C@]1(C(F)(F)F)CCCC[C@H]1Nc1ccc(F)cc1` [BAY-390]: the inhibition in [1] is -1.95%; in test [2] it was 8.7%; in [3], 25.7%; in test [4] it was 4.19%; in test [5], 10.4%; in the test filed under Rattus norvegicus, 2.79%. Besides, the inhibition in test [6] is 69.4%; in test [7], -4.08%; in [9], -8.22%; in [10], -6.61%; in test [11], 8.3%; in [13], 21.4%. Moreover, the inhibition in [14] was -2.71%. Also, the IC50 in test [8] was 0.016 µM (active); in [12], > 25 µM (not active).
As for `COc1cc(N[C@@H]2CCCC[C@]2(O)C(F)(F)F)ccc1F` [BAY-9897], the inhibition was 6.99% in test [1]; 0.41% in [2]; -8.03% in [3]; -3.92% in test [4]; -5.5% in test [5]; -1.71% in the test filed under Rattus norvegicus. Besides, the inhibition in test [6] was 1%; in test [7], 6.32%; in [9], 2.69%; in test [10] it was -0.75%; in [11] it was 18.5%; in [13] it was 14.4%. The inhibition in test [14] was 3.81%. Further, the IC50 in test [8] and in test [12] was > 25 µM (not active) in each case.

By inhibition is commonly meant the relative decrease from the control value, in per cent. What is called IC50 is the concentration that inhibits the measured activity by half.

(Values after ChEMBL document CHEMBL4507328, “Data for DCP probe BAY-390” (2021).)
